Experimental data: patent publication US20230044787A1, “TRICYCLE DIHYDROIMIDAZOPYRIMIDONE DERIVATIVE, PREPARATION METHOD THEREOF, PHARMACEUTICAL COMPOSITION AND USE THEREOF” (priority 2019, published 2023)

molecular target: T1, Lp-PLA2 (Homo sapiens, UniProt Q13093); assay: Lipoprotein-associated phospholipase A2 (Lp-PLA2) human plasma assay (Thio-PAF assay); assay type: biochemical; conditions: Lp-PLA2 human plasma assay (Thio-PAF), pooled human plasma, 30-min pre-incubation at room temperature
T1 construct: aliquoted and thawed 40 μL of pooled human plasma was previously added; from tissue; host or cells: pooled human plasma
T1 sequence (Q13093 22-441): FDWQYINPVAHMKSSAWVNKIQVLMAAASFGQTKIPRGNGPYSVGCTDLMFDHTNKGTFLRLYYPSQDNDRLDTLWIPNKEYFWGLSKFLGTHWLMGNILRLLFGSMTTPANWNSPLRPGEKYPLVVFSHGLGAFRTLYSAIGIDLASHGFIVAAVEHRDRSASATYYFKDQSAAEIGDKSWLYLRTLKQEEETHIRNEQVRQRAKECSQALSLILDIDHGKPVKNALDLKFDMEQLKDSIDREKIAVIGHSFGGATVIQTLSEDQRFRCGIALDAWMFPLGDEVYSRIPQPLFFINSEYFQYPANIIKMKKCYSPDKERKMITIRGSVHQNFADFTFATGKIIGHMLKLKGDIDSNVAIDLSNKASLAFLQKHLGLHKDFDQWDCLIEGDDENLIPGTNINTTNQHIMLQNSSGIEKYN
Description: Lipoprotein-Associated Phospholipase A2 (Lp-PLA2) Human Plasma Assay
The amount of sulfhydryl groups is continuously determined by the reaction with CPM (7-diethylamino-3-(4′-maleimidophenyl)-4-methylcoumarin), and the CPM is a maleimide of which fluorescence increases after Michael addition of sulfhydryl group. This assay can detect Lp-PLA2 activity in human plasma, as determined by specific inhibition of Lp-PLA2 inhibitors.
Thio-PAF assay was performed as quenched 75 μL assay. Compound source plate was prepared for each compound by preparing 1:3 (by volume) serial dilutions in pure DMSO in a 96-well microplate. The compound on the source plate was diluted 20-fold by transferring 3 μL of the compound from the compound source plate into a 96-well microplate pre-added with 57 μL of assay buffer by Rainin multichannel pipette. The assay buffer described above consisted of 50 mM HEPES, pH 7.4, 150 mM NaCl, 1 mM CHAPS. 1 μL of the 20-fold diluted compound was transferred by Rainin multichannel pipette into a 96-well Greiner 655076 (black) microplate to which aliquoted and thawed 40 μL of pooled human plasma was previously added. The plate was shaken for 20 seconds on a microplate shaker to mix well. After a 30-min pre-incubation at room temperature, 10 μL of substrate solution was added to the 96-well Greiner 655076 (black) microplate by Rainin multichannel pipette, in which the substrate solution contained 2.5 mM 2-thio-PAF [from ethanol stock], 32 μM CPM [from DMSO stock], and 3.2 mM NEM (N-ethylmaleimide) [freshly prepared in DMSO per experiment] in assay buffer consisting of 50 mM HEPES, pH 7.4; 150 mM NaCl; 1 mM CHAPS. After 2 min, the reaction was quenched with […] of 5% trifluoroacetic acid (TFA) in water. The plate was centrifuged at 2000 rpm for 1 minute. The plate was read at ex:380/em:485 using a Biotek Synergy H1 (H1MF) microplate reader. IC50 data, curves and QC analysis were performed using GraphPad Prism 6.0 and Excel.

Structure (SMILES)	IC50
N#Cc1cc(COc2cc3n(c(=O)n2)C[C@]24CO[C@H](CN32)C4)ccc1Oc1ccc(Cl)c(F)c1 [Example 20]	6.8 nM
O=c1nc(OCc2cc(F)c(Oc3cccc(C(F)F)c3)c(F)c2)cc2n1C[C@]13CO[C@H](CN21)C3 [Example 179]	4.1 nM
O=c1nc(OCCc2ccc(Oc3ccnc(C(F)(F)F)c3)c(F)c2)cc2n1C[C@]13CO[C@H](CN21)C3 [Example 156]	5.7 nM
O=c1nc(OCc2ccc(Oc3ccnc(C(F)(F)F)c3)c(F)c2)cc2n1CC13CC(CN4CCOCC4)(CN21)C3 [Example 166, 3-((3-fluoro-4-((2-(trifluoromethyl)pyridin-4-yl)oxy)benzyl)oxy)-7-(morpholinomethyl)-7,8-dihydro-1H,6H,9H-7,8a-methanopyrrolo[1′,2′:3,4] imidazo[1,2-c]pyrimidin-1-one]	5.8 nM
O=c1nc(OCc2ccc(Oc3cncc(C(F)(F)F)c3)c(F)c2)cc2n1CC13CC(CN21)C3 [Example 148, 3-((3-fluoro-4-((5-(trifluoromethyl)pyridin-3-yl)oxy)benzyl)oxy)-7,8-dihydro-1H,6H,9H-7,8a-methanopyrrolo[1′,2′:3,4] imidazo[1,2-c]pyrimidin-1-one]	4.3 nM
O=c1nc(OCc2ccc(Oc3ccnc(C(F)(F)F)c3)c(F)c2)cc2n1C[C@@]13C[C@@H](CN21)N(C1CCC1)C3 [Example 177, (3S,11aS)-2-cyclobutyl-7-((3-fluoro-4-((2-(trifluoromethyl)pyridin-4-yl)oxy)benzyl)oxy)-1,2,3,4-tetrahydro-9H,11H-3,11a-methano-pyrazino[l′,2′:3,4]imidazo[1,2-c]pyrimidin-9-one]	5.5 nM
COc1c(NCc2ccc(F)c(F)c2)nc(=O)n2c1N1C[C@@H]3C[C@]1(CO3)C2 [Example 175, (3S,11aR)-7-((3,4-Difluorobenzyl)amino)-6-methoxy-3,4-dihydro-1H,9H,11H-3,11a-methanopyrimido[6′, 1′:2, 3]imidazo[5,1-c] [1, 4]oxazin-9-one]	168 nM
O=c1nc(OCc2ccc(Oc3ccnc(C(F)(F)F)c3)c(F)c2)cc2n1CC13CCC(CC1)N23 [Example 118, 3-((3-fluoro-4-((2-(trifluoromethyl)pyridin-4-yl)oxy)benzyl)oxy)-7,8-dihydro-1H,6H,9H-6,8a-ethanopyrrolo[1′,2′:3,4] imidazo[1,2-c]pyrimidin-1-one]	6 nM
COc1c(OCc2cc(F)c(Oc3ccnc(C(F)(F)F)c3)c(F)c2)nc(=O)n2c1N1C[C@@H]3C[C@]1(CO3)C2 [Example 106, (3S,11aR)-7-((3,5-difluoro-4-((2-(trifluoromethyl)pyridin-4-yl)oxy)benzyl)oxy)-6-methoxy-3,4-dihydro-1H,9H,11H-3,11a-methanopyrimido[6′,1′:2,3] imidazo[5,1-c][1,4]oxazin-9-one]	1 nM
CC12CCCCN1c1cc(OCCc3ccc(Oc4ccc(Cl)c(C(F)(F)F)c4)cc3)nc(=O)n1C2 (stereo not shown) [Example 73, 3-(4-(4-chloro-3-(trifluoromethyl)phenoxy)phenethoxy)-9a-methyl-6,7,8,9,9a,10-hexahydro-1H-pyrido[1′,2′:3,4]imidazo [1,2-c]pyrimidin-1-one]	4.8 nM
O=c1nc(OCc2cc(F)c(F)c(F)c2)cc2n1CC13CC(CN21)C3 [Example 98, 3-((3,4,5-trifluorobenzyl)oxy)-7,8-dihydro-1H,6H,9H-7,8a-methanopyrrolo[1′,2′:3,4] imidazo[1,2-c]pyrimidin-1-one]	30.2 nM
N#Cc1cc(COc2cc3n(c(=O)n2)C[C@@]24CO[C@@H](CN32)C4)ccc1Oc1cccc(C(F)(F)F)c1 [Example 33]	6 nM
O=c1nc(OCc2ccc(Oc3ccnc(C(F)(F)F)c3)c(F)c2)cc2n1CC13CCC(CC1)N23 [Example 149, 3-((3-fluoro-4-((2-(trifluoromethyl)pyridin-4-yl)oxy)benzyl)oxy)-7,8-dihydro-1H,6H,9H-6,8a-ethanopyrrolo[1′,2′:3,4] imidazo[1,2-c]pyrimidin-1-one]	4.1 nM
COc1c(OCc2ccc(F)c(F)c2)nc(=O)n2c1N1CC3CC1(C3)C2 [Example 150, 3-((3,4-difluorobenzyl)oxy)-4-methoxy-7,8-dihydro-1H,6H,9H-7,8a-methanopyrrolo[1′,2′:3,4] imidazo[1,2-c]pyrimidin-1-one]	4.8 nM
CC12CCCN1c1cc(OCc3ccc(Oc4ccc(C(F)(F)F)cc4)c(C#N)c3)nc(=O)n1C2 (stereo not shown) [Example 60, 5-(((8a-methyl-1-oxo-7,8,8a,9-tetrahydro-1H,6H-pyrrolo[1′,2′:3,4]imidazo [1,2-c]pyrimidin-3-yl)oxy)methyl)-2-(4-(trifluoromethyl)phenoxy) benzonitrile]	6.6 nM
O=c1nc(OCc2ccc(F)c(F)c2)cc2n1CC13CC(CN21)C3 [Example 97, 3-((3,4-difluorobenzyl)oxy)-7,8-dihydro-1H,6H,9H-7,8a-methanopyrrolo[1′,2′:3,4] imidazo[1,2-c]pyrimidin-1-one]	14.2 nM
CCc1c(OCc2cc(F)c(Oc3ccnc(C(F)(F)F)c3)c(F)c2)nc(=O)n2c1N1C[C@@H]3C[C@]1(CO3)C2 [Example 104, (3S,11aR)-7-((3,5-difluoro-4-((2-(trifluoromethyl)pyridin-4-yl)oxy)benzyl)oxy)-6-ethyl-3,4-dihydro-1H,9H,11H-3,11a-methanopyrimido[6′,1′:2,3] imidazo[5,1-c][1,4]oxazin-9-one]	8.6 nM

Continued, values first:

IC50	Structure (SMILES)
2.1 nM	O=c1nc(OCc2cc(F)c(Oc3ccnc(C(F)(F)F)c3)c(F)c2)cc2n1CC13CC(F)(CN21)C3 [Example 158, 3-((3,5-difluoro-4-((2-(trifluoromethyl)pyridin-4-yl)oxy)benzyl)oxy)-7-fluoro-7,8-dihydro-1H,6H,9H-7,8a-methanopyrrolo[1′,2′:3,4] imidazo[1,2-c]pyrimidine-1-one]
23.4 nM	CCC12CCCCN1c1cc(OCc3cc(F)c(Oc4ccnc(C(F)(F)F)c4)c(F)c3)nc(=O)n1C2 (stereo not shown) [Example 75, 3-((3,5-difluoro-4-((2-(trifluoromethyl)pyridin-4-yl)oxy)benzyl)oxy)-9a-ethyl-6,7,8,9,9a,10-hexahydro-1H-pyrido[1′,2′:3,4]imidazo [1,2-c]pyrimidin-1-one]
5.1 nM	CC12COCCN1c1cc(OCc3cc(F)c(Oc4ccc(C(F)(F)F)nc4)c(F)c3)nc(=O)n1C2 (stereo not shown) [Example 81, 7-((3,5-difluoro-4-((6-(trifluoromethyl)pyridin-3-yl)oxy)benzyl)oxy)-11a-methyl-3,4,11,11a-tetrahydro-1H,9H-pyrimido[6′,1′:2,3]imidazo [5,1-c][1,4]oxazin-9-one]
7.6 nM	CC12CCCN1c1cc(OCc3cc(F)c(Oc4ccnc(C(F)(F)F)c4)c(F)c3)nc(=O)n1C2 (stereo not shown) [Example 54, 3-((3,5-difluoro-4-((2-(trifluoromethyl)pyridin-4-yl)oxy)benzyl)oxy)-8a-methyl-7,8,8a,9-tetrahydro-1H,6H-pyrrolo[1′,2′:3,4]imidazo [1,2-c]pyrimidin-1-one]
4.9 nM	O=c1nc(OCc2cc(F)c(Oc3cncc(C(F)(F)F)c3)c(F)c2)cc2n1C[C@]13CO[C@H](CN21)C3 [Example 8]
2.5 nM	O=c1nc(OCc2cc(F)c(Oc3ccc(Cl)c(C(F)(F)F)c3)c(F)c2)cc2n1C[C@@]13CO[C@@H](CN21)C3 [Example 27, (3R,11aS)-7-((4-(4-chloro-3-(trifluoromethyl)phenoxy)-3,5-difluorobenzyl)oxy)-3,4-dihydro-1H,9H,11H-3,11a-methanopyrimido[6′,1′:2,3] imidazo[5,1-c][1,4]oxazin-9-one]
6.5 nM	O=c1nc(OCc2cc(F)c(Oc3ccc(C(F)(F)F)nc3)c(F)c2)cc2n1C[C@]13CO[C@H](CN21)C3 [Example 9]
7.3 nM	O=c1nc(OCc2cc(F)c(Oc3ccnc(Cl)c3)c(F)c2)cc2n1C[C@@]13CO[C@@H](CN21)C3 [Example 28, (3R,11aS)-7-((4-((2-chloropyridin-4-yl)oxy)-3,5-difluorobenzyl)oxy)-3,4-dihydro-1H,9H,11H-3,11a-methanopyrimido[6′,1′:2,3] imidazo[5,1-c][1,4]oxazin-9-one]
